Measured values taken from patent publication US20100249138A1, “MPZP: A SMALL MOLECULE CORTICOTROPIN-RELEASING FACTOR TYPE 1 RECEPTOR (CRF1) ANTOGONIST” (priority 2007, published 2010).

How the values were obtained:
[1] = test system: 62 other receptors, transporters, and ion channels; test: Novascreen side-effect potential screening assay (GEN SEP I panel); assay type: binding; conditions: 10 μM
Description: Specificity of MPZP for other receptor, transporter, and ion channel targets was determined at 1 and 10 μM concentrations via a commercial screening service (Novascreen, GEN SEP I panel, Hanover, Md.).

[2] = biological target: T1, CRF1 receptors (Rattus norvegicus, UniProt P35353); test: CRF receptor autoradiography, rat brain sections, CRF1-rich regions; assay type: binding; set-up: from tissue
T1 sequence (P35353 24-415): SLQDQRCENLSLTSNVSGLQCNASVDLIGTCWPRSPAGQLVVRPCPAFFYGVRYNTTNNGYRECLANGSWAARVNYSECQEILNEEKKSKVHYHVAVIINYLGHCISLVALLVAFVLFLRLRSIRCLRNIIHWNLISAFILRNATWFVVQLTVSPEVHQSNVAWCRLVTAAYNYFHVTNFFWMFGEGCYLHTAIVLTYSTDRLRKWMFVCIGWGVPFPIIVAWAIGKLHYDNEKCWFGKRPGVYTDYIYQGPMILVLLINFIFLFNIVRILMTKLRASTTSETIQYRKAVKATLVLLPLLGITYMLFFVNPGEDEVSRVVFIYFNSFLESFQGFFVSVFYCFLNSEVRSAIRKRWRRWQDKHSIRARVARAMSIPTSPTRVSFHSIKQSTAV
Description: For CRF receptor autoradiography, brain tissue was sectioned coronally (20 μm) using a cryostat (−17° C.). Sections were mounted on Superfrost Plus+ charged glass slides (Fisher Scientific, Pittsburgh, Pa.), permitted to dry completely, and stored in airtight boxes at −80° C. until the day of autoradiography. Autoradiography was performed using standard procedures based on the previous characterization of [^125I]Tyr^0-sauvagine [Grigoriadis et al., Mol. Pharmacol. (1996) 50:679-686].
Slides containing triplicate adjacent brain sections were thawed to room temperature and permitted to dry completely. Each section then was outlined using a PAP pen (Calbiochem, San Diego, Calif.). Sections were incubated in assay buffer (DPBS with 10 mM MgCl2, 2 mM EGTA, 1 tablet/100 ml protease inhibitor, 0.15% bovine serum albumin) for 15 minutes to remove endogenous ligand. Slides then were incubated under one of four conditions: (1) 0.2 nM […] to determine total binding; (2) 0.2 nM radiolabeled sauvagine+1 μM R121919 (below)
to determine non-CRF1 (e.g., CRF2) receptor binding; (3) 0.2 nM radiolabeled sauvagine+3 μM MPZP to determine non-CRF1 (e.g., CRF2) receptor binding using the experimental compound under study; (4) 0.2 nM radiolabeled sauvagine+0.3 μM unlabeled D-Phe-CRF12-41, a subtype-nonspecific CRF receptor antagonist, to determine non-CRF1/CRF2 (e.g., nonspecific binding). […]

[3] = test system: precipitated-withdrawal induced anxiety-like behavior; test: Defensive burying test during mecamylamine-precipitated nicotine withdrawal; assay type: in vivo, rat
Description: Nicotine hydrogen tartrate salt (Sigma, Natick) was dissolved in saline at pH 7.4 and experimenter-administered via minipump or self-administered via indwelling jugular catheter. Doses are expressed as free base. Mecamylamine (Sigma; Natick, Mass.) was dissolved in saline and administered i.p. (1 ml/kg). The CRF1 antagonist (N,N-bis(2-methoxyethyl)-3-(4-methoxy-2-methylphenyl)-2,5-dimethyl-pyrazolo-[1,5α]pyrimidin-7-amine, or MPZP) was synthesized at The Scripps Research Institute by Dr. P. Wirshing, dissolved in 20% hydroxypropyl beta-cyclodextrin (Cavitron, Cargill) in isotonic saline at pH 4.5 and administered s.c. (2 ml/kg, 45 to 60 min before testing). Rat/human CRF was supplied by Dr. Jean Rivier, The Salk Institute. CRF was dissolved in 1× PBS (pH 7.4) and prepared fresh few minutes before intracerebral injection. The doses and time of injections were selected based on previous studies [Richardson et al., Program No. 783. 4 Neuroscience Meeting Planner. Atlanta, Ga.: Society for Neuroscience, OnlineI (2006); Specio et al., Program No. 777. 11 Neuroscience Meeting Planner. Washington, D.C.: Society for Neuroscience, Online (2004)].
Rats were subcutaneously implanted with osmotic minipumps delivering either saline (n=33) or nicotine (n=31) (3.16 mg/kg/day, free base, s.c.) as described above. After 14 days of pump exposure, testing was performed 5-8 hours into the dark cycle in a standard cage with 2 inches of bedding (wood shavings) along the bottom and a small hole centered in one side one inch above the bedding to accommodate the shock-probe. Rats were habituated (45 minutes) to the test cage for 2 days prior to testing. On the test day, mecamylamine or its vehicle were administered 30 minutes before behavioral testing, and the CRF1 antagonist or its vehicle were administered 45 minutes before behavioral testing (n=7-9 per group). On contact with the probe and shock delivery (using a Coulbourn precision shocker, 1.5 mA, AC, <1 s), verified by a startle response, the probe was deactivated. The latency and duration of probe-directed burying, rearing, resting, grooming, and freezing were measured from videotape over a 10 minutes period by an experimenter blind to the subject treatment condition using a computer program.

[4] = nicotine pump, CRF1 antagonist + Mecamylamine
[5] = nicotine pump, CRF1 antagonist + Vehicle
[6] = saline pump, CRF1 antagonist + Mecamylamine
[7] = saline pump, CRF1 antagonist + Vehicle

Q: What does the source list for `COCCN(CCOC)c1cc(C)nc2c(-c3ccc(OC)cc3C)c(C)nn12` [MPZP, N,N-bis(2-methoxyethyl)-3-(4-methoxy-2-methylphenyl)-2,5-dimethyl-pyrazolo[1,5-a]pyrimidin-7-amine]?
A: activity at 62 other receptors, transporters, and ion channels [1]: did not exhibit high activity; displacement of [125I]-Tyr0-sauvagine (CRF1-like binding) ([2]; cerebral cortex, concentration printed 1 mM): displaces the majority; displacement of [125I]-Tyr0-sauvagine binding from CRF1-rich regions ([2]; cortex and basolateral amygdala, 3 μM): displaced most; Burying [3, 4]: 115 ± 24 s; Freezing [3, 4]: 7 ± 7 s; Grooming [3, 4]: 38 ± 14 s; Latency to bury [3, 4]: 82 ± 19 s; Rearing [3, 4]: 126 ± 21 s; Resting [3, 4]: 68 ± 26 s; Burying [3, 5]: 85 ± 42 s; Freezing [3, 5]: 13 ± 7 s; Grooming [3, 5]: 48 ± 18 s; Latency to bury [3, 5]: 130 ± 36 s; Rearing [3, 5]: 181 ± 21 s; Resting [3, 5]: 24 ± 11 s; anxiogenic-like effect of mecamylamine to increase burying ([3]; nicotine-dependent rats, MPZP 4 mg/kg s.c. pretreatment, mecamylamine 1.5 mg/kg i.p.): blocked; Burying [3, 6]: 143 ± 20 s; Freezing [3, 6]: 5 ± 3 s; Grooming [3, 6]: 15 ± 5 s; Latency to bury [3, 6]: 80 ± 18 s; Rearing [3, 6]: 139 ± 7 s; Resting [3, 6]: 51 ± 22 s; Burying [3, 7]: 145 ± 34 s; Freezing [3, 7]: 9 ± 8 s; Grooming [3, 7]: 26 ± 12 s; Latency to bury [3, 7]: 104 ± 29 s; Rearing [3, 7]: 183 ± 19 s; Resting [3, 7]: 11 ± 7 s
